According to US4118418A, “5-Phenenyltris (ureylene) triisophthalic acid salts” (American Cyanamid Company, priority 1977, dated 1978):
Structures can show the parent of a compound that is named as a salt.

Experiments:
[1] = test system: hereditary angioneurotic edema; conditions: New England Journal of Medicine, 286, 808-812 (1972); cited from earlier work
complement system = conditions: literature; cited from earlier work
whole complement = assay: Complement Level Reduction Test, whole complement in serum of dosed guinea pigs by capillary tube assay; type: in vivo; conditions: i.p., 200 mg/kg
From the text: An active inhibitor protects C2 from C1 and C4; (ii) Test, Code O35 (C3-C9 inhibitor) -- This test determines the ability of the late components of human complement (C3-C9) to lyse EAC l42 in the presence of appropriate dilutions of the test compound. An active inhibitor protects EAC 142 from lysis by human C3-C9; (iii) Test, Code 036 (C-Shunt inhibitor) -- In this test human erythrocytes rendered fragile are lysed in autologous serum via the shunt pathway activated by cobra venom factor in the presence of appropriate dilutions of the test compound. Inhibition of the shunt pathway results in failure of lysis; (iv) Forssman Vasculitis Test -- Here, the well known complement dependent lesion, Forssman vasculitis, is produced in guinea pigs by intradermal injection of rabbit anti-Forssman antiserum. The lesion is measured in terms of diameter, edema and hemorrhage and the extent to which a combined index of these is inhibited by prior intraperitoneal injection of the test compound at 200 mg/kg is then reported, unless otherwise stated; (v) Forssman Shock Test -- Lethal shock is produced in guinea pigs by an i.v. injection of anti-Forssman antiserum and the harmonic mean death time of treated guinea pigs is compared with that of simultaneous controls; (vi) Complement Level Reduction Test -- In this test, the above dosed guinea pigs, or others, are bled for serum and the complement level is determined in undiluted serum by the capillary tube method of U.S. Pat. No. 3,876,376 and compared to undosed control guinea pigs; and (vii) Cap 50 Test -- Here, appropriate amounts of the test compound are added to a pool of guinea pig serum in vitro, after which the undiluted serum capillary tube assay referred to above is run. The concentration of compound inhibiting 50% is reported.
With reference to Table I, guinea pigs weighing about 300 g were dosed intravenously (i.v.) or intraperitoneally (i.p.) with 200 mg/kg of the test compound dissolved in saline and adjusted to pH 7-8. […] Percent inhibition was calculated by comparison with simultaneous controls. […]

[2] = test system: shunt pathway activated by cobra venom factor; assay: Test, Code 036 (C-Shunt inhibitor), lysis of human erythrocytes in autologous serum via shunt pathway; type: cell-based; conditions: Table I; two-fold serial dilutions
From the text: (§1) An active inhibitor protects C2 from C1 and C4; (ii) Test, Code O35 (C3-C9 inhibitor) -- This test determines the ability of the late components of human complement (C3-C9) to lyse EAC l42 in the presence of appropriate dilutions of the test compound. An active inhibitor protects EAC 142 from lysis by human C3-C9; (iii) Test, Code 036 (C-Shunt inhibitor) -- In this test human erythrocytes rendered fragile are lysed in autologous serum via the shunt pathway activated by cobra venom factor in the presence of appropriate dilutions of the test compound. Inhibition of the shunt pathway results in failure of lysis; (iv) Forssman Vasculitis Test -- Here, the well known complement dependent lesion, Forssman vasculitis, is produced in guinea pigs by intradermal injection of rabbit anti-Forssman antiserum. […]

activated human C1 [3] = biological target: T1, activated human C1 (Homo sapiens, UniProt P09871); assay: Intrinsic Therapeutic Index (Code 026 C1 inhibitor test versus anti-coagulant test); conditions: Table II
T1 sequence (P09871 16-688): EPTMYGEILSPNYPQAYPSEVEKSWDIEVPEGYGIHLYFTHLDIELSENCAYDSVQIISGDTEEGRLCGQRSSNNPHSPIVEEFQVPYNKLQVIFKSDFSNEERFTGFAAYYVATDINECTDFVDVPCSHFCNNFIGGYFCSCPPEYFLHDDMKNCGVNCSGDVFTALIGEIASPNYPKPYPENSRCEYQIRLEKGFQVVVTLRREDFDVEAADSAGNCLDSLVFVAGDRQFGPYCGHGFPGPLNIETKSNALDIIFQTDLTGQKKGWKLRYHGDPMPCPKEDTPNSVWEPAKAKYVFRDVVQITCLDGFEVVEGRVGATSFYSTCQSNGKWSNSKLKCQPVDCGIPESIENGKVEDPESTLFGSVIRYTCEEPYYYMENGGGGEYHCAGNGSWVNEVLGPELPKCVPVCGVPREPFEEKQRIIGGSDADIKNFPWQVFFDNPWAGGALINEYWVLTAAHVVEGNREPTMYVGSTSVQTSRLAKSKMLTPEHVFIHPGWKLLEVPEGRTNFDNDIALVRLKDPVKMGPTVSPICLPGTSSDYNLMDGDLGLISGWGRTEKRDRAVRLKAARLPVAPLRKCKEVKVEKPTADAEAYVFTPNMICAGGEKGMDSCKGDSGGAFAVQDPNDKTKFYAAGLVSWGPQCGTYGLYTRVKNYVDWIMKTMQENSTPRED
T1 sequence (P00736 18-705 partner): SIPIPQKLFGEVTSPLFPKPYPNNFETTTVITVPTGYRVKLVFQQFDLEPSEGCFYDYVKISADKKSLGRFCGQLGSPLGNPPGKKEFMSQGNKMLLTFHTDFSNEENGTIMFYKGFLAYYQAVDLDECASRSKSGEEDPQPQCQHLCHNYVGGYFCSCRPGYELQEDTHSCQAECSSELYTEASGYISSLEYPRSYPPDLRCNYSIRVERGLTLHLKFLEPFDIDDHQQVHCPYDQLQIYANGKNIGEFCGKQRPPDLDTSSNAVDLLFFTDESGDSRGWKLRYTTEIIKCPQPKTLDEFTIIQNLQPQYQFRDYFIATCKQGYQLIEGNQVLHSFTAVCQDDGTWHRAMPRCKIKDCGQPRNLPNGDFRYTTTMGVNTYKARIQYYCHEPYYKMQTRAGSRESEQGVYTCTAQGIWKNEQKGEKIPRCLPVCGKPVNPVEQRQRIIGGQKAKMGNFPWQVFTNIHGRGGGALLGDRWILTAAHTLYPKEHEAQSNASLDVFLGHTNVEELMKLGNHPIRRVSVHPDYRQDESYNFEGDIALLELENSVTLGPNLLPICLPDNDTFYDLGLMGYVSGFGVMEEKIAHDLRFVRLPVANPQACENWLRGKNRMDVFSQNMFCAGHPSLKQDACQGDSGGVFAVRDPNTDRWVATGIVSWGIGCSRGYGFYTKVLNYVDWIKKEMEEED
T1 sequence (P02745 23-245 partner): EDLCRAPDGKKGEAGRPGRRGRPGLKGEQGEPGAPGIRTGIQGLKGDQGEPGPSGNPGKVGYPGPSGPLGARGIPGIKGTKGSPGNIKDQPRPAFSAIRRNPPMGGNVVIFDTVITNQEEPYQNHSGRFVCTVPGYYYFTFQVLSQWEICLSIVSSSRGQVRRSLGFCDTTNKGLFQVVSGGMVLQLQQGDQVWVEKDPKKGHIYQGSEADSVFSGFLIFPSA
T1 sequence (P02746 28-253 partner): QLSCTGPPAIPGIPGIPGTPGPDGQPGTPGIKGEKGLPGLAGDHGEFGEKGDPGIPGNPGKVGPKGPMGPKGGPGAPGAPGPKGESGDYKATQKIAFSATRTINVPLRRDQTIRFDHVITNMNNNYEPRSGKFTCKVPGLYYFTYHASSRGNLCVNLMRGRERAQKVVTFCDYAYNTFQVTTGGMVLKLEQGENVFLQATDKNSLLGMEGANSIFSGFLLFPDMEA
T1 sequence (P02747 29-245 partner): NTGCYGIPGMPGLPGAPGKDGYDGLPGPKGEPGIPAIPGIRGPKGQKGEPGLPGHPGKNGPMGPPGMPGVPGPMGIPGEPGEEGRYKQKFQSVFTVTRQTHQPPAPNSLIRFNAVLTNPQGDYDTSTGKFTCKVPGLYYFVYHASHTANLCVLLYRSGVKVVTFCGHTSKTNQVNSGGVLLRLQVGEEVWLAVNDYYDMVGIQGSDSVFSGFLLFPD
From the text: The computation of an Intrinsic Therapeutic Index (ITI) was devised to correlate the results expressed in wells, obtained in the in vitro Code 026 (C1 inhibitor) test and the in vitro anti-coagulant (AC) test into a meaningful value which would aid in the net evaluation of the activity of the compounds of this invention.
The ITI is thus a measure of the separation of anti-complement and anti-coagulant activities; the higher the numerical value the more therapeutically useful the separation of activities.

Citrated sheep plasma = assay: in vitro anti-coagulant activity (AC), clotting of recalcified citrated sheep plasma; type: biochemical
Description: The sheep RBC's, kept in suspension throughout the clotting incubation time, become enmeshed in the fibrin matrix if a clot forms. Upon centrifugation of the plate, untrapped RBC's form buttons, the sizes of which correspond to the degree of clot inhibition; this providing a measure of anti-coagulant activity (AC). Sodium heparin is used as a positive control and activity is reported in wells appearing in Table I.
**Activity in wells a serial dilution assay. Higher well number indicates
higher activity. The serial dilutions are two-fold.

activated human C1 [4] = biological target: T1, activated human C1; assay: Test, Code 026 (C1 inhibitor); type: biochemical; conditions: Table II; highest active serial dilution
From the text: as §1

[5] = test system: human serum total hemolytic complement; conditions: in vitro and in vivo, reduction in total hemolytic complement activity; Pathologie Biologie, 25, 33-36 (1977); cited from earlier work

Question: Which “use in treatment of hereditary angioneurotic edema” value (shortened to “use in treatment”) [1] does the source give for `NCCCCCC(=O)O` [epsilon-aminocaproic acid] here?
Answer: Its value is “used with success”.

Question: Which “anticomplementary effect / complement inhibition” value (complement system) does the source give for `Nc1ccc2cc(S(=O)(=O)O)cc(O)c2c1N=Nc1ccc(NC(=O)Nc2ccc(N=Nc3c(N)ccc4cc(S(=O)(=O)O)cc(O)c34)c(S(=O)(=O)O)c2)cc1S(=O)(=O)O` [chlorazol fast pink, 3,3'-ureylenebis-[6-(2-amino-8-hydroxy-6-sulfo-1-naphthylazo)]benzenesulfonic acid, tetrasodium salt] here?
Answer: The value was “anticomplementary effect”.

Question: Which “In Vivo Activity (Guinea Pig) % Inhibition, Intraperitoneal, 30 mins.” value (whole complement; 30 mins.) does the source give for `O=C(Nc1cc(NC(=O)Nc2cc(C(=O)O)cc(C(=O)O)c2)cc(NC(=O)Nc2cc(C(=O)O)cc(C(=O)O)c2)c1)Nc1cc(C(=O)O)cc(C(=O)O)c1` [5,5',5"-(s-Phenenyltriureylene)triisophthalic acid hexasodium salt] here?
Answer: Its value is -43%.

Question: And the “In Vivo Activity (Guinea Pig) % Inhibition, Intraperitoneal, 60 mins.” value (whole complement; 60 mins.)?
Answer: The value was -9%.

Question: And the “In Vivo Activity (Guinea Pig) % Inhibition, Intraperitoneal, 120 mins.” value (whole complement; 120 mins.)?
Answer: Its value is -41%.

Question: What about the “Shunt Inhibition 036 Wells” value [2] of the same compound?
Answer: Its value is “+1 Wells”.

Question: And the “Intrinsic Therapeutic Index” value (activated human C1 [3]; antilogarithm (base 2) of the difference in wells)?
Answer: Its value is 256.

Question: What about the “Logarithmic Difference Expressed as Wells” value (activated human C1 [3]; log (base 2) difference Code 026 minus AC) of the same compound?
Answer: Its value is “+8 Wells”.

Question: And the “AC Wells” value (Citrated sheep plasma; Table I, anti-coagulant activity, two-fold serial dilutions)?
Answer: The value was under -2 Wells.

Question: And the “In Vitro Activity, Anti-Coagulant Activity (Wells) AC” value (Citrated sheep plasma; Table II, highest active serial dilution)?
Answer: Its value is -2 Wells.

Question: And the “In Vitro Activity, Complement Inhibiting Activity (Wells) Code 026” value (activated human C1 [4])?
Answer: Its value is “+6 Wells”.

Question: For `Cc1ccc(C(=O)Nc2ccc(S(=O)(=O)O)c3cc(S(=O)(=O)O)cc(S(=O)(=O)O)c23)cc1NC(=O)c1cccc(NC(=O)Nc2cccc(C(=O)Nc3cc(C(=O)Nc4ccc(S(=O)(=O)O)c5cc(S(=O)(=O)O)cc(S(=O)(=O)O)c45)ccc3C)c2)c1` [Suramin], which “use in treatment” value [1] is on record?
Answer: The value was “used with success”.

Question: What about the “anticomplementary effect / complement inhibition” value (complement system) of the same compound?
Answer: Its value is “competitive inhibitor of the complement system”.

Question: For pentosan-poly-sulfoester, which “anticomplementary activity on human serum” value [5] is on record?
Answer: Its value is “anticomplementary activity on human serum both in vitro and in vivo”.

Question: For `NC[C@H]1CC[C@H](C(=O)O)CC1` [tranexamic acid], which “use in treatment” value [1] is on record?
Answer: Its value is “used with success”.

Question: For heparin, which “anticomplementary effect / complement inhibition” value (complement system) is on record?
Answer: Its value is “anticomplementary effect”.
